From patent US12668586B2, “AhR inhibitor, use thereof, and preparation method therefor” (CHONGQING PHARSCIN INNOBIO CO., LTD., priority 2021, dated 2026)

Target: T1, AhR (Homo sapiens, UniProt P35869)
T1 sequence (P35869 11-848): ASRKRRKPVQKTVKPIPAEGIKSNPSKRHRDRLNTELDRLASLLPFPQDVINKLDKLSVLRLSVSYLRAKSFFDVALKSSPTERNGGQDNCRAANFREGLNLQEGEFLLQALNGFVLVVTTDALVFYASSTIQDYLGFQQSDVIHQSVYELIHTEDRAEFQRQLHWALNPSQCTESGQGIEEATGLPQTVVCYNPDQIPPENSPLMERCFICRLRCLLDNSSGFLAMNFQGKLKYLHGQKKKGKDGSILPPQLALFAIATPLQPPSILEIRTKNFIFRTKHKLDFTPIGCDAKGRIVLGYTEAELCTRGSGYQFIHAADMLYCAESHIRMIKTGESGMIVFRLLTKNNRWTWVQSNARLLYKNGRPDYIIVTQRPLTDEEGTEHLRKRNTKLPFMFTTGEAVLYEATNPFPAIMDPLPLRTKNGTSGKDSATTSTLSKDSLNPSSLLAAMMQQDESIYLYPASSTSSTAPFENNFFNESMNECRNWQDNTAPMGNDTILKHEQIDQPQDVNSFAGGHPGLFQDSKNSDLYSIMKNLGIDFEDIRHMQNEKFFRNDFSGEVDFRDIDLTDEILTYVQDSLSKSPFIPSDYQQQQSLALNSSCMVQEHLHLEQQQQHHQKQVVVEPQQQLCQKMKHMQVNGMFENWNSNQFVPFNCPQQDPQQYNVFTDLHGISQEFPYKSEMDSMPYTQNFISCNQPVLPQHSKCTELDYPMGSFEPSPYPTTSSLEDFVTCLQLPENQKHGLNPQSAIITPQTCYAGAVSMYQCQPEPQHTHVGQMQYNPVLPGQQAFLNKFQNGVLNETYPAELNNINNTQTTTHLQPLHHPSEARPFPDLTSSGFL
Test: AhR inhibitory activity experiment, in vitro assay 1: HepG2-Lucia AhR cells, Lucia luciferase reporter (QUANTI-Luc)
Type: cell-based
Details: 24 hours incubation at 37° C., Lucia luciferase in supernatant, read-out: AhR inhibitory activity C50
Description: Test Example: AhR Inhibitory Activity Experiment
When QUANTI-Luc™ (InvivoGen Company) testing reagents are used, AhR gene signaling pathways can be studied by monitoring the activity of Lucia luciferase in the cell culture supernatant.
In Vitro Assay 1: Assay on Inhibitory Activity in Human Cell Lines
Adherent cell layers of HepG2-Lucia™ AhR cells in a logarithmic growth phase were washed with PBS, and then the cells were isolated with trypsin. The isolated cells were centrifuged at 1000 RPM for 5 minutes, the supernatant was removed, and the cells were re-suspended with a test medium by 1.25×10^5 cells/ml.
20,000 cells were added to each well of a 96-well plate, and the 96-well plate was placed in a CO2 incubator to incubate the cells at 37° C. for 24 hours in the absence (negative control) or presence of test compounds with gradient increasing concentrations (typical dilutions: 169 pmol/L, 0.5 nmol/L, 1.5 nmol/L; 4.6 nmol/L, 13.7 nmol/L, 41 nmol/L, 123 nmol/L, 370 nmol/L, 1.1 μmol/L, 3.3 μmol/L and 10 μmol/L, in triplicate).
The 20 μl/well cell supernatant was transferred to a black 96-well plate, a 50 μL/well QUANTI-Luc™ solution was added, and the activity of Lucia luciferase was measured on a multifunctional ELISA reader Spark 10 M (Tecan Company) through a QUANTI-Luc™ luciferase assay system.
Experimental results are shown in Table 1, wherein for IC50 values, “++++” represents IC50<0.05 μM; “+++” represents IC50 between 0.05 μM and 0.2 μM; “++” represents IC50 between 0.2 μM and 1.0 μM; and “+” represents IC50>1.0 μM.

Row | SMILES | IC50 [nM]
1 | Cn1cc(-c2nc(C(=O)NC3(C)CCN(CC(N)=O)CC3)cc(-c3ccc(Cl)cc3)n2)cn1 [Compound 45, 6-(4-chlorophenyl)-N-(2-(4-yl-4-methylpiperidin-1-yl)acetamide)-2-(1-methyl-1H-pyrazol-4-yl)pyrimidine-4-formamide] | < 50
2 | C[C@H](NC(=O)c1cc(-c2ccc(Cl)cc2)nc(-c2cnn(C)c2)n1)c1ccc(C#N)c(F)c1 [Compound 57, (S)-6-(4-chlorophenyl)-N-(1-(3-fluoro-4-cyanophenyl)ethyl)-2-(1-methyl-1H-pyrazol-4-yl)pyrimidine-4-formamide] | < 50
3 | Cc1noc(C)c1-c1nc(C(=O)N[C@@H](C)c2ccnc(F)c2)cc(-c2ccc(Cl)cc2)n1 [Compound 59, (S)-6-(4-chlorophenyl)-N-(1-(2-fluoro-4-pyridine)ethyl)-2-(3,5-dimethylisoxazol-4-yl)pyrimidine-4-formamide] | > 1000
4 | Cn1cc(-c2nc(C(=O)NC3(C)CCN(CC(F)(F)F)CC3)cc(-c3ccc(Cl)cc3)n2)cn1 [Compound 44, 6-(4-chlorophenyl)-N-((4-yl-4-methylpiperidin-1-yl)trifluoroethyl)-2-(1-methyl-1H-pyrazol-4-yl)pyrimidine-4-formamide] | < 50
5 | COc1cc([C@H](C)NC(=O)c2cc(-c3ccc(Cl)cc3)nc(-c3cnn(C)c3)n2)ccc1F [Compound 30, (S)-6-(4-chlorophenyl)-N-(1-(3-methoxy-4-fluorophenyl)ethyl)-2-(1-methyl-1H-pyrazol-4-yl)pyrimidine-4-formamide] | < 50
6 | C[C@H](NC(=O)c1cc(-c2ccc(Cl)cc2)nc(-c2cnn(C)c2)n1)c1ccc2c(c1)OCO2 [Compound 16, (S)-6-(4-chlorophenyl)-N-(1-[5(2H-1,3-benzodioxomethylene)]ethyl)-2-(1-methyl-1H-pyrazol-4-yl)pyrimidine-4-formamide] | 50 to 200
7 | Cn1cc(-c2nc(C(=O)N[C@H]3CCc4ncccc43)cc(-c3ccc(OC(F)(F)F)cc3)n2)cn1 [Compound 61, (S)-6-(4-trifluoromethoxyphenyl)-N-((S)-6,7-dihydro-5H-cyclopentano[B]pyridin-5-yl)-2-(1-methyl-1H-pyrazol-4-yl)pyrimidine-4-formamide] | > 1000
8 | C[C@H](NC(=O)c1cc(-c2ccc(Cl)cc2)nc(-c2cnn(C)c2)n1)c1ccccc1C(F)(F)F [Compound 24, (S)-6-(4-chlorophenyl)-N-(1-(o-trifluoromethylphenyl)ethyl)-2-(1-methyl-1H-pyrazol-4-yl)pyrimidine-4-formamide] | 200 to 1000
9 | Cn1cc(-c2nc(C(=O)NCC3(c4ccc(Cl)cc4)CC3)cc(-c3ccc(Cl)cc3)n2)cn1 [Compound 22, (S)-6-(4-chlorophenyl)-N-(1-[1-(4-chlorophenyl)cyclopropyl]methyl)-2-(1-methyl-1H-pyrazol-4-yl)pyrimidine-4-formamide] | > 1000
10 | C[C@H](NC(=O)c1cc(-c2ccc(Cl)cc2)nc(-c2cnn(C)c2)n1)c1ccc(F)c(C#N)c1 [Compound 40, (S)-6-(4-chlorophenyl)-N-(1-(3-cyano-4-fluorophenyl)ethyl)-2-(1-methyl-1H-pyrazol-4-yl)pyrimidine-4-formamide] | < 50
11 | Cn1cc(-c2nc(C(=O)N[C@H]3CCc4ncccc43)cc(-c3ccc(Cl)cc3)n2)cn1 [Compound 2, (S)-6-(4-chlorophenyl)-N-((S)-6,7-dihydro-5H-cyclopentano[B]pyridin-5-yl)-2-(1-methyl-1H-pyrazol-4-yl)pyrimidine-4-formamide] | < 50
12 | Cn1cc(-c2nc(C(=O)N[C@H]3CC(C)(C)c4ccccc43)cc(-c3ccc(Cl)cc3)n2)cn1 [Compound 25, (S)-6-(4-chlorophenyl)-N-((S)-(3,3-dimethyl-2,3-dihydro)-(−)-1-yl-2-indene)-2-(1-methyl-1H-pyrazol-4-yl)pyrimidine-4-formamide] | > 1000
13 | C[C@H](NC(=O)c1cc(-c2ccc(Cl)cc2)nc(-c2cnn(C)c2)n1)c1ccc(Cl)c(F)c1 [Compound 13, (S)-6-(4-chlorophenyl)-N-(1-(3-fluoro-4-chlorophenyl)ethyl)-2-(1-methyl-1H-pyrazol-4-yl)pyrimidine-4-formamide] | < 50
14 | C[C@H](NC(=O)c1cc(-c2ccc(Cl)cc2)nc(-c2cnn(C)c2)n1)c1ccc(O)c(F)c1 [Compound 11, (S)-6-(4-chlorophenyl)-N-(1-(3-fluoro-4-hydroxyphenyl)ethyl)-2-(1-methyl-1H-pyrazol-4-yl)pyrimidine-4-formamide] | > 1000
15 | Cn1cc(-c2nc(C(=O)NC3(c4ccc(F)c(F)c4)CC3)cc(-c3ccc(Cl)cc3)n2)cn1 [Compound 7, (S)-6-(4-chlorophenyl)-N-(1-(3,4-difluorophenyl)cyclopropyl)-2-(1-methyl-1H-pyrazol-4-yl)pyrimidine-4-formamide] | < 50
16 | Cn1cc(-c2nc(C(=O)N[C@H](c3ccc(F)cc3)C3CC3)cc(-c3ccc(Cl)cc3)n2)cn1 [Compound 19, (S)-6-(4-chlorophenyl)-N-(1-cyclopropyl(4-fluorophenyl))-2-(1-methyl-1H-pyrazol-4-yl)pyrimidine-4-formamide] | < 50
17 | C[C@H](NC(=O)c1cc(-c2ccc(Cl)cc2)nc(-c2ccnc(N)c2)n1)c1ccnc(F)c1 [Compound 37, (S)-6-(4-chlorophenyl)-N-(1-(2-fluoro-4-pyridine)ethyl)-2-(2-aminopyridin-4-yl)pyrimidine-4-formamide] | < 50
18 | C[C@H](NC(=O)c1cc(-c2ccc(Cl)cc2)nc(-c2cnn(C)c2)n1)c1ccnc(F)c1 [Compound 15, (S)-6-(4-chlorophenyl)-N-(1-(2-fluoro-4-pyridine)ethyl)-2-(1-methyl-1H-pyrazol-4-yl)pyrimidine-4-formamide] | < 50
19 | C[C@H](NC(=O)c1cc(-c2ccc(F)cc2)nc(-c2cnn(C)c2)n1)c1ccnc(F)c1 [Compound 47, (S)-6-(4-fluorophenyl)-N-(1-(2-fluoro-4-pyridine)ethyl)-2-(1-methylpyrazol-4-yl)pyrimidine-4-formamide] | 50 to 200
20 | Cn1cc(-c2nc(C(=O)N[C@H]3CCc4ncccc43)cc(-c3ccc(C(F)(F)F)cc3)n2)cn1 [Compound 56, (S)-6-(4-trifluoromethylphenyl)-N-((S)-6,7-dihydro-5H-cyclopentano[B]pyridin-5-yl)-2-(1-methyl-1H-pyrazol-4-yl)pyrimidine-4-formamide] | < 50
21 | C[C@H](NC(=O)c1cc(-c2ccc(Cl)cc2)nc(-c2ccnc(F)c2)n1)c1ccnc(F)c1 [Compound 38, (S)-6-(4-chlorophenyl)-N-(1-(2-fluoro-4-pyridine)ethyl)-2-(2-fluoropyridin-4-yl)pyrimidine-4-formamide] | < 50
22 | C[C@H](NC(=O)c1cc(-c2ccc(Cl)cc2)nc(-c2cnn(C)c2)n1)c1ccc(F)c(F)c1 [Compound 1, (S)-6-(4-chlorophenyl)-N-(1-(3,4-difluorophenyl)ethyl)-2-(1-methyl-1H-pyrazol-4-yl)pyrimidine-4-formamide] | < 50
23 | O=C(N[C@H]1CCc2ncccc21)c1cc(-c2ccc(C(F)(F)F)cc2)nc(-c2cccnc2)n1 [Compound 55, (S)-6-(4-trifluoromethylphenyl)-N-((S)-6,7-dihydro-5H-cyclopentano[B]pyridin-5-yl)-2-(pyridin-3-yl)pyrimidine-4-formamide] | < 50
